For data set [1], the system named is ovariectomized (OVX) female Sprague Dawley rats. The note with it: rat, in vivo, po, 4 days. The protocol: In the examples illustrating the methods, a post-menopausal model was used in which effects of different treatments upon circulating lipids were determined.
(§1) Seventy-five day old female Sprague Dawley rats (weight range of 200 to 225 g) were obtained from Charles River Laboratories (Portage, Mich.). The animals were either bilaterally ovariectomized (OVX) or exposed to a Sham surgical procedure at Charles River Laboratories, and then shipped after one week. Upon arrival, they were housed in metal hanging cages in groups of 3 or 4 per cage and had ad libitum access to food (calcium content approximately 0.5%) and water for one week. Room temperature was maintained at 22.2°±1.7° C. with a minimum relative humidity of 40%. The photoperiod in the room was 12 hours light and 12 hours dark.
(§2) Dosing Regimen Tissue Collection. After a one week acclimation period (therefore, two weeks post-OVX) daily dosing with test compound was initiated. 17α-ethynyl estradiol or the test compound were given orally, unless otherwise stated, as a suspension in 1% carboxymethylcellulose or dissolved in 20% cyclodextrin. Animals were dosed daily for 4 days. Following the dosing regimen, animals were weighed and anesthetized with a ketamine: Xylazie (2:1, V:V) mixture and a blood sample was collected by cardiac puncture. The animals were then sacrificed by asphyxiation with CO2, the uterus was removed through a midline incision, and a wet uterine weight was determined.
(§3) Data presented in Table 1 below show comparative results among ovariectomized rats, rats treated with 17α-ethynyl estradiol (EE2; an orally available form of estrogen), and rats treated with certain compounds of the present invention. […] This uterine response to estrogen is well recognized in the art.
(§4) The data presented in the Tables 1 below reflects the response of 5 to 6 rats per treatment.

For data set [2] the test system is unchanged. Description: Serum cholesterol in OVX rats, 4-day dosing. To be noted: Rattus norvegicus, po, 96 h, oral daily for 4 days, read-out: Serum Cholesterol (% decrease vs. OVX). Format: in vivo, rat.
Excerpt: as §1, §2
Cholesterol Analysis. Blood samples were allowed to clot at room temperature for 2 hours, and serum was obtained following centrifugation for 10 minutes at 3000 rpm. Serum cholesterol was determined using a Boehringer Mannheim Diagnostics high performance cholesterol assay. Briefly the cholesterol was oxidized to cholest-4-en-3-one and hydrogen peroxide. The hydrogen peroxide was then reacted with phenol and 4-aminophenazone in the pressure of peroxidase to produce a p-quinone imine dye, which was read spectrophotemetrically at 500 nm. Cholesterol concentration was then calculated against a standard curve. The entire assay was automated using a Biomek Automated Workstation.
as §3, §4

The test system of data set [3] is Uterine Eosinophil Peroxidase (EPO). To be noted: female, Sprague Dawley, rat, in vivo, po, 4 days.
Excerpt: as §1, §2
Uterine Eosinophil Peroxidase (EPO) Assay. Uteri were kept at 4° C. until time of enzymatic analysis. The uteri were then homogenized in 50 volumes of 50 mM Tris Buffer (pH −8.0) containing 0.005% Triton X-100. Upon addition of 0.01% hydrogen peroxide and 10 mM O-phenylenediamine (final concentrations) in Tris buffer, increase in absorbance was monitored for one minute at 450 nm. The presence of eosonophils in the uterus is an indication of estrogenic activity of a compound. The maximal velocity of a 15 second interval was determined over the initial, linear portion of the reaction curve.
As is expressed in the below data, estrogenicity also was assessed by evaluating the adverse response to eosinophil infiltration into the uterus.
as §4

SMILES strings stand for the structures. Where two headings read alike, the source gives them in different places.

On to `CCN(CC)CCOc1ccc(Cc2c(-c3ccc(OC)cc3)ccc3cc(OC)ccc23)cc1.Cl` [Example 22, [2-(4-Methoxyphenyl)-6-methoxynaphthalen-1-yl][4-[2-(1-N,N-diethylamino)ethoxy]phenyl]methane hydrochloride], for which the “Uterine Weight (% increase vs. OVX)” value in data set [1] (0.1 mg/kg) is reported as 83.9%; in data set [1] (1 mg/kg), 87.5%; in data set [1] (10 mg/kg) it was 89.3%. Further, the inhibition in vivo at 0.1 mg/kg in data set [2] is 72%. The inhibition in vivo at 1 mg/kg in data set [2] was 60.5%. Besides, in data set [2], the inhibition in vivo at 10 mg/kg amounted to 68.7%. The “Uterine EPO (V. max)” value was 45.0 in data set [3] (0.1 mg/kg), 41.1 in data set [3] (1 mg/kg) and 46.2 in data set [3] (10 mg/kg).
On to `Oc1ccc(-c2ccc3cc(O)ccc3c2Cc2ccc(OCCN3CCOCC3)cc2)cc1` [Example 32], for which the “Uterine Weight (% increase vs. OVX)” value in data set [1] (0.1 mg/kg) is reported as 50.5%; in data set [1] (1 mg/kg) it was 55.4%; in data set [1] (10 mg/kg), 69.7%. Also, the inhibition in vivo at 0.1 mg/kg in data set [2] was 57.9%. Further, the inhibition in vivo at 1 mg/kg in data set [2] is 60.3%. The inhibition in vivo at 10 mg/kg in data set [2] stood at 65.7%. The “Uterine EPO (V. max)” value is 9.3 in data set [3] (0.1 mg/kg), 39.3 in data set [3] (1 mg/kg) and 34.8 in data set [3] (10 mg/kg).
With `CC1(C)CCN(CCOc2ccc(Cc3c(-c4ccc(O)cc4)ccc4cc(O)ccc34)cc2)C1` [Example 33, [2-(4-Hydroxyphenyl)-6-hydroxynaphthalen-1-yl][4-[2-(1-(3,3-dimethyl)pyrrolidinyl)ethoxy]phenyl]methane], the “Uterine Weight (% increase vs. OVX)” value in data set [1] (0.1 mg/kg) is 40.8%; in data set [1] (1 mg/kg), 79.0%; in data set [1] (10 mg/kg), 63.0%. Also, the inhibition in vivo at 0.1 mg/kg in data set [2] was 25.2%. Also, the inhibition in vivo at 1 mg/kg in data set [2] is 41.1%. In addition, the inhibition in vivo at 10 mg/kg in data set [2] was determined as 52.8%. The “Uterine EPO (V. max)” value is 12.9 in data set [3] (0.1 mg/kg), 55.2 in data set [3] (1 mg/kg) and 73.5 in data set [3] (10 mg/kg).
As to `CCCCS(=O)(=O)Oc1ccc(-c2ccc3cc(OS(=O)(=O)CCCC)ccc3c2Cc2ccc(OCCN3CCCCC3)cc2)cc1` [Example 5, [2-(4-n-Butylsulfonyloxyphenyl)-6-n-butylsulfonyloxynaphthalen-1-yl][4-[2-(1-piperidinyl)ethoxy]phenyl]methane], the “Uterine Weight (% increase vs. OVX)” value in data set [1] (0.1 mg/kg) came out at 43.2%; in data set [1] (1 mg/kg), 16.0%; in data set [1] (10 mg/kg), 25.3%. The inhibition in vivo at 0.1 mg/kg in data set [2] worked out at 6%. For the same compound, the inhibition in vivo at 1 mg/kg in data set [2] came to 62%. The inhibition in vivo at 10 mg/kg in data set [2] came to 46.2%. Besides, the “Uterine EPO (V. max)” value in data set [3] (0.1 mg/kg) was found to be 3.4; in data set [3] (1 mg/kg), 4.3; in data set [3] (10 mg/kg) it was 2.6.
Regarding `Oc1ccc(-c2ccc3cc(O)ccc3c2Cc2ccc(OCCN3CCCC3)cc2)cc1` [Example 19], the “Uterine Weight (% increase vs. OVX)” value in data set [1] (0.1 mg/kg) is −12.4%; in data set [1] (1 mg/kg), 1.0%; in data set [1] (10 mg/kg) it was 7.1%. Moreover, the inhibition in vivo at 0.1 mg/kg in data set [2] turned out to be 4.5%. Also, the inhibition in vivo at 1 mg/kg in data set [2] was found to be 19.7%. Moreover, in data set [2], the inhibition in vivo at 10 mg/kg was 40.9%. Further, the figures for the “Uterine EPO (V. max)” value in data set [3] (0.1 mg/kg), in data set [3] (1 mg/kg) and in data set [3] (10 mg/kg) were 0.9, 5.4 and 4.5, respectively.
Turning to `COc1ccc(-c2ccc3cc(OC)ccc3c2Cc2ccc(OCCN3CCCCCC3)cc2)cc1.Cl` [Example 26, [2-(4-Methoxyphenyl)-6-methoxynaphthalen-1-yl][4-[2-(1-hexamethyleneiminyl)ethoxy]phenyl]methane hydrochloride], in data set [2], the inhibition in vivo at 0.1 mg/kg was 45.1%, the inhibition in vivo at 1 mg/kg was 55.5% and the inhibition in vivo at 10 mg/kg is 60.6%.
For `CC(C)(C)C(=O)Oc1ccc(-c2ccc3cc(OC(=O)C(C)(C)C)ccc3c2Cc2ccc(OCCN3CCCCC3)cc2)cc1` [Example 4, [2-(4-Pivaloyloxyphenyl)-6-pivaloyloxynaphthalen-1-yl][4-[2-(1-piperidinyl)ethoxy]phenyl]methane], the “Uterine Weight (% increase vs. OVX)” value in data set [1] (0.1 mg/kg) came to 52.1%; in data set [1] (1 mg/kg), 22.8%; in data set [1] (10 mg/kg), 75.2%. Further, in data set [2], the inhibition in vivo at 0.1 mg/kg came out at 21.2%. Also, the inhibition in vivo at 1 mg/kg in data set [2] was determined as 37.2%. For the same compound, in data set [2], the inhibition in vivo at 10 mg/kg amounted to 20.8%. In addition, the “Uterine EPO (V. max)” value came out at 3.6 in data set [3] (0.1 mg/kg), 2.9 in data set [3] (1 mg/kg) and 3.4 in data set [3] (10 mg/kg).
In the case of `COc1ccc(-c2ccc3ccccc3c2Cc2ccc(OCCN3CCCCC3)cc2)cc1.Cl` [Example 15, [2-(4-Methoxyphenyl)-naphthalen-1-yl][4-[2-(1-piperdinyl)ethoxy]phenyl]methane hydrochloride], the “Uterine Weight (% increase vs. OVX)” value in data set [1] (0.01 mg/kg) is listed as 29.3%; in data set [1] (0.1 mg/kg) it was 41.6%; in data set [1] (1 mg/kg), 21.2%; in data set [1] (10 mg/kg), 53.7%. Besides, the inhibition in vivo at 0.01 mg/kg in data set [2] (dose 0.01 mg/kg) was determined as 12.4%. The inhibition in vivo at 0.1 mg/kg in data set [2] was 53.4%. In addition, the inhibition in vivo at 1 mg/kg in data set [2] amounted to 66%. For the same compound, the inhibition in vivo at 10 mg/kg in data set [2] amounted to 55.4%. The “Uterine EPO (V. max)” value in data set [3] (0.01 mg/kg) is 4.6; in data set [3] (0.1 mg/kg) it was 7.0; in data set [3] (1 mg/kg) it was 5.2; in data set [3] (10 mg/kg), 5.5.
Turning to `Oc1ccc2c(Cc3ccc(OCCN4CCCC4)cc3)c(-c3ccccc3)ccc2c1` [Example 12], the “Uterine Weight (% increase vs. OVX)” value in data set [1] (0.1 mg/kg) was 26.3%; in data set [1] (1 mg/kg), 18.6%; in data set [1] (10 mg/kg) it was 25.1%. Besides, the inhibition in vivo at 0.1 mg/kg in data set [2] is 46.3%. Moreover, in data set [2], the inhibition in vivo at 1 mg/kg was 49.9%. Further, the inhibition in vivo at 10 mg/kg in data set [2] was determined as 50.1%. The results for the “Uterine EPO (V. max)” value in data set [3] (0.1 mg/kg), in data set [3] (1 mg/kg) and in data set [3] (10 mg/kg) were 12.0, 4.8 and 4.5, respectively.
Turning to `Oc1ccc2c(Cc3ccc(OCCN4CCCCC4)cc3)c(-c3ccccc3)ccc2c1` [Example 11, [2-Phenyl-6-hydroxynaphthalen-1-yl][4-[2-(1-piperdinyl)ethoxy]phenyl]methane], the entries for the “Uterine Weight (% increase vs. OVX)” value in data set [1] (0.1 mg/kg), in data set [1] (1 mg/kg) and in data set [1] (10 mg/kg) were 48.1%, 47.4% and 14.4%, respectively. Besides, in data set [2], the inhibition in vivo at 0.1 mg/kg was 60.2%. Moreover, the inhibition in vivo at 1 mg/kg in data set [2] is 73.5%. Moreover, the inhibition in vivo at 10 mg/kg in data set [2] amounted to 72.4%. Besides, the “Uterine EPO (V. max)” value stood at 4.8 in data set [3] (0.1 mg/kg), 3.9 in data set [3] (1 mg/kg) and 3.9 in data set [3] (10 mg/kg).

The values are drawn from US6410564B1, “Naphthyl compounds, intermediates, processes, compositions, and methods” (Eli Lilly and Company, priority 1994, dated 2002).
